Values quoted from earlier work, collected in patent US20150071857A1, “STEROID HORMONE AND CHOLESTEROL PATHWAYS AS ONE UNIFIED HOMEOSTATIC SYSTEM” (LIGAND PHARMACEUTICALS, INC., priority 2012, published 2015).
Where two headings read alike, the source gives them in different places. Each block holds one molecule with its values, some of them ahead of it.

Key:
[1] = parenterally formulated progestin-only contraceptive, women
[2] = large WHI trials
[3] = high-dose, postmenopausal women
[4] = high dose, on top of statin therapy

- thrombosis events [2]: doubled the thrombosis events
SMILES: CC(=O)O[C@]1(C(C)=O)CC[C@H]2[C@@H]3C[C@H](C)C4=CC(=O)CC[C@]4(C)[C@H]3CC[C@@]21C [Medroxyprogesterone acetate]
- HDL-C change [1]: significant reduction in HDL-C

SMILES: O=c1c(-c2ccccc2)coc2ccccc12 [isoflavone]
- HDL-C change [3]: significantly reduced
- total T change [3]: significantly reduced

SMILES: O=C(O)c1cccnc1 [niacin]
- cardiovascular events [4]: no significant reduction in cardiovascular events
